Test system: subjects with subjective tinnitus of at least moderate severity
Assay: Double blind placebo controlled Phase III clinical trial of neramexane for treatment of tinnitus (TBF-12 total score)
Format: in vivo, human
Conditions: for Change in the TBF-12 total score from baseline to Week 17/EOT, LSmean: 50/75 mg/d, mean adjusted for covariates (ANCOVA); for Change in the TBF-12 total score from baseline to Week 17/EOT, LSmean / Change in the TBF-12 total score from baseline to Week 17/EOT, Mean change (SD): 17 weeks; for Change in the TBF-12 total score from baseline to Week 17/EOT, LSmean / Change in the TBF-12 total score from baseline to Week 17/EOT, Mean change (SD) / Comparison between treatment groups, LSmean (ner − pla), change in TBF-12 total score: FAS-LOCF; for Change in the TBF-12 total score from baseline to Week 17/EOT, Mean change (SD): neramexane mesylate 50/75 mg/d by body weight; for Comparison between treatment groups, LSmean (ner − pla), change in TBF-12 total score: estimated difference Neramexane − Placebo from ANCOVA
Experimental: The objective of this clinical trial was to assess the efficacy of neramexane as a treatment for tinnitus. The primary objective of this 17 weeks double-blind, randomized placebo-controlled study was to compare the efficacy, tolerability and safety of neramexane mesylate at two different, weight-adapted dosages (50 or 75 mg/d) with placebo in subjects with subjective tinnitus of at least moderate severity.
In a double-blind, multicenter, randomized, placebo-controlled, parallel-group study, the efficacy of neramexane in subjects suffering from tinnitus of at least moderate severity was assessed. A total of 411 patients, who fulfilled particular inclusion criteria and met none of particular exclusion criteria, were randomized to one of two double-blind treatment groups (neramexane mesylate 50 or 75 mg/d depending on body weight, or placebo).
Subjects were treated for 17 weeks with neramexane or placebo including a four- resp. five-week up-titration period, depending on study drug dose, followed by 30 to 35 days treatment-free observational period. Alternatively to treatment-free observational period, subjects could immediately at Week 17 start with a one-year open label treatment study.
Main inclusion criteria were: • Diagnosis of “subjective tinnitus” • Tinnitus duration of at least 3 months and less or equal to 12 months (subacute tinnitus) • Persistent, uni- or bilateral tinnitus • THI-12≧9 (=at least moderate tinnitus severity) • Hospital Anxiety and Depression (HADS) subscores for depression ≦10 and for anxiety ≦10
Main exclusion criteria were: • Intermittent or pulsatile tinnitus • Tinnitus as a concomitant symptom of an otological/neurological disease • Concomitant tinnitus treatment • Application for a pension/retirement pay or granted pension/retirement because of tinnitus.
Patients with a target daily dose of 50 mg neramexane mesylate (<90 kg body weight) were to reach steady state after four weeks, patients with a target total daily dose of 75 mg neramexane mesylate (≧90 kg body weight) were to reach steady state after five weeks of treatment. For patients who experienced dose limiting adverse events with the 75 mg dose, the dosage was reduced by switching the patient to 50 mg/day. Patients unable to tolerate a minimum dosage of 50 mg/day discontinued.
Patient eligibility for the study was evaluated via a check of inclusion/exclusion criteria. The subject completed a Tinnitus-Beeinträchtigungs-Fragebogen (TBF-12=Tinnitus. Handicap Inventory (THI-12)) (i.e., a 12-item modified and validated version (Greimel K V et al., Tinnitus-Beeinträchtigungs-Fragebogen (TBF-12). Manual. Frankfurt am Main: Swets & Zeitlinger B. V.; 2000) of the 25-item Tinnitus Handicap Inventory or THI (Newman C W, et al. Development of the Tinnitus Handicap Inventory. Arch Otolaryngol Head Neck Surg 1996; 122(2): 143-148; Newman C W, et al. Psychometric adequacy of the Tinnitus Handicap Inventory (THI) for evaluating treatment outcome. J Am Acad Audiol 1998; 9(2): 153-160.)). The TBF-12 items can be grouped in 2 factorial scores: an emotional-cognitive and a functional-communicational factor. At Visit 1. patients also completed a Tinnitus Rating Scale (TRS, Likert scores on Tinnitus Loudness, Tinnitus Impact on Life, and Tinnitus Annoyance), and the Hospital Anxiety and Depression Scale Audiology/psychoacoustic measurements were performed unless results from previous examinations performed no more than one year prior to Screening were available.
Visit 7 (Week 17, end of treatment (EOT)). This visit occurred at the end of the 12-week fixed-dose double-blind treatment period. This visit was also to be performed for patients who discontinued prematurely. The subject was asked about adverse events and changes in concomitant medication/disease, which changes are documented. A clinical laboratory evaluation was performed as well as ECG and physical examination (including body weight). Blood samples were collected in order to determine neramexane concentration. […]

CC1(C)CC(C)(C)CC(C)(N)C1 [Neramexane, 1-amino-1,3,3,5,5-pentamethylcyclohexane]
Change in the TBF-12 total score from baseline to Week 17/EOT, LSmean (Females, N=74): −3.8
Change in the TBF-12 total score from baseline to Week 17/EOT, Mean change (SD) (Females, N=74): −3.1 (4.2)
Comparison between treatment groups, LSmean (ner − pla), change in TBF-12 total score (Females, P-value 0.0122): −1.7
Change in the TBF-12 total score from baseline to Week 17/EOT, LSmean (Total population, N=203): −3.0
Change in the TBF-12 total score from baseline to Week 17/EOT, Mean change (SD) (Total population, N=203): −2.5 (4.3)
Comparison between treatment groups, LSmean (ner − pla), change in TBF-12 total score (Total population, P-value 0.1997): −0.5
Improvement for the treatment of tinnitus in subgroups of women (women 26 to 65 or 46 to 65 years of age, and/or free from clinical signs of depression (HADS-D 7 or less)): an improvement
Improvement for the treatment of tinnitus in women (TBF-12 total score) (women, compared to the effect found for the total patient population): statistically significant improvement

From patent US20110294890A1, “Neramexane for the treatment or prevention of inner ear disorders” (MERZ PHARMA GmbH & CO. KGaA, priority 2010, published 2011)
